# Read-outs that look alike come from different tables or passages of the source.
# What was measured:
# human recombinant PDE4 = target: T1, human recombinant PDE4 (Homo sapiens, UniProt Q07343); test: Inhibition of human recombinant PDE4 (charcoal separation PDE assay); assay type: biochemical
# T1 construct: made in house; host or cells: Saccharomyces cerevisiae BJ2-54
# Procedure: The compounds of structural formula (I) were tested for an ability to inhibit PDE4. […] The IC50 value for compounds of structural formula (I) were determined using human recombinant PDE4.
# Phosphodiesterase activity of the preparations was determined as follows. […] In this assay, PDE activity converts [32P]cAMP or [32P]cGMP to the corresponding [32P]5′-AMP or [32P]5′-GMP in proportion to the amount of PDE activity present. The [32P]5′-AMP or [32P]5′-GMP then was quantitatively converted to free [32P]phosphate and unlabeled adenosine or guanosine by the action of snake venom 5′-nucleotidase. […] The assay was performed at 30° C. in a 100 μL reaction mixture containing (final concentrations) 40 mM Tris HCl (pH 8.0), 1 μM ZnSO4, 5 mM MgCl2, and 0.1 mg/mL bovine serum albumin (BSA). Alternatively, in assays assessing PDE1-specific activity, incubation mixtures further incorporated the use of 0.1 mM CaCl2 and 10 μg/mL calmodulin. PDE enzyme was present in quantities that yield <30% total hydrolysis of substrate (linear assay conditions). The assay was initiated by addition of substrate (1 mM [32P]cAMP or cGMP), and the mixture was incubated for 12 minutes. Seventy-five (75) μg of Crotalus atrox venom then was added, and the incubation was continued for 3 minutes (15 minutes total). The reaction was stopped by addition of 200 μL of activated charcoal (25 mg/mL suspension in 0.1 M NaH2PO4, pH 4). After centrifugation (750×g for 3 minutes) to sediment the charcoal, a sample of the supernatant was taken for radioactivity determination in a scintillation counter and the PDE activity was calculated.
# [1] = system: TNFα release from human peripheral blood lymphocytes; test: Lipopolysaccharide-stimulated TNFα release from human peripheral blood lymphocytes; assay type: cell-based; details: Lymphocyte
# Procedure: The compounds of structural formulae (I) and (II) were tested for an ability to reduce TNFα secretions in human peripheral blood lymphocytes. The ability of a compound to reduce TNFα secretion is related to the EC50 value for the compound (i.e., the effective concentration of the compound capable of inhibiting 50% of the total TNFα).
# To assess the ability of a compound to reduce TNFα secretion in human peripheral blood lymphocytes (PBL), the following tests were performed.
# Heparinized blood (approximately 30 mL) drawn from human volunteers was mixed 1:1 with Dulbecco's modified phosphate-buffered saline. This mixture was mixed 1:1 with HISTOPAQUE® and centrifuged at 1,500 rpm at room temperature without braking in the swinging bucket of a Beckman model TJ6 centrifuge. Erythrocytes were centrifuged to the bottom of the tubes, and serum remained at the surface of the tubes. A layer containing lymphocytes sedimented between the serum and HISTOPAQUE® layers, and was removed by aspiration to a fresh tube. The cells were quantified and adjusted to […] and a 100 μL aliquot is placed into the wells of a 96 well plate. Test compounds and RPMI media (Gibco/BRL Life Sciences) are added to each of the wells 15 minutes prior to addition of bacterial LPS ([…]). The mixture was allowed to incubate for 20 hours at 37° C. in a humidified chamber. The cells then were separated by centrifuging at 800 rpm for 5 minutes at room temperature. An aliquot of 180 μL of supernatant was transferred to a new plate for determination of TNFα concentration. TNFα protein in the cell supernatant fluids was measured using a commercially available enzyme-linked immunosorbent assay (ELISA) (CYTOSCREEN® Immunoassay Kit from Biosource International).
# (§1) The cell-based assay provided the following results for various compounds of the present invention. The EC50. values (i.e., effective concentration of the compound capable of inhibiting 50% of the total TNFα) illustrate the ability of the present compounds to inhibit LPS-stimulated TNFα release from human PBL.
# as §1, with “various pyrazole” for “various”, “EC50” for “EC50.”, “concentrations” for “concentration”, “peripheral blood lymphocytes.” for “PBL.”
# recombinant human PDE4 = details: background, reported value; read-out: reported IC50 with respect to recombinant human PDE4; cited from earlier work
# [2] = structure table, read-out: PDE4 IC50
# [3] = table with PBL/TNFα, read-out: PDE4 IC50
# [4] = LPS-stimulated TNFα release from human PBL, read-out: PBL/TNFα EC50
# [5] = Homo sapiens, read-out: PBL/TNFα EC50 (μM)
# [6] = PDE4 IC50 (μM), structure table
# [7] = PDE4 IC50 (μM), table with PBL/TNFα
# T1 sequence (Q07343 whole entry): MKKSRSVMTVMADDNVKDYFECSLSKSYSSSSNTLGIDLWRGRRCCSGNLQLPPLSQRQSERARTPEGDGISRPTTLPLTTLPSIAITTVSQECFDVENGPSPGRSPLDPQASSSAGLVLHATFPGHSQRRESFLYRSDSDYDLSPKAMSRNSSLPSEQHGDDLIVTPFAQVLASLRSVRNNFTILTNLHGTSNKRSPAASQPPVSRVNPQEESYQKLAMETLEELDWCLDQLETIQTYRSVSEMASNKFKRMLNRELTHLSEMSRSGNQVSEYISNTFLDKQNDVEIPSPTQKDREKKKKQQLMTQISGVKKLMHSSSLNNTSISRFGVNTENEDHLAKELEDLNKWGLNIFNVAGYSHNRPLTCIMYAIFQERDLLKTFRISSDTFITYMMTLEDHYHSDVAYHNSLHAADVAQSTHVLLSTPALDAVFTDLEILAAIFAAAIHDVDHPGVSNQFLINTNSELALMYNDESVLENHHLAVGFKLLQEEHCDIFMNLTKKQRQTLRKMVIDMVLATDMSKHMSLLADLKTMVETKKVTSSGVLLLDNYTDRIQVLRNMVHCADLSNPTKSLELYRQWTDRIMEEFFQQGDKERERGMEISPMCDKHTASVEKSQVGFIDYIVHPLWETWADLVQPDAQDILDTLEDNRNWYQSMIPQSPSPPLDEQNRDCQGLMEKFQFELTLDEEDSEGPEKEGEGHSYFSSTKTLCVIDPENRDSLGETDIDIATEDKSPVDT
compound,measurement,setting,value
"CCOC(=O)c1cn(-c2ccccn2)nc1C [Example 26, 3-methyl-1-pyridin-2-yl-1H-pyrazole-4-carboxylic acid ethyl ester]",IC50,human recombinant PDE4; [2],3.59 µM
"CCOC(=O)c1cnn(-c2ccc([N+](=O)[O-])cc2)c1C(F)(F)F [Example 30, 1-(4-Nitrophenyl)-5-trifluoromethyl-1H-pyrazole-4-carboxylic acid ethyl ester]",IC50,human recombinant PDE4; [2],45.4 µM
"CCOC(=O)c1c(C)nn(-c2ccc(N)cc2)c1C [Example 11, 3,5-dimethyl-1-(4-aminophenyl)-1H-pyrazole-4-carboxylic acid ethyl ester]",IC50,human recombinant PDE4; [2],0.3 µM
same,IC50,human recombinant PDE4; [3],0.3 µM
same,EC50,[1]; [4],1 µM
"CCOC(=O)c1cnn(-c2c(Cl)cc(Cl)cc2Cl)c1COC [Example 35, 5-Methoxymethyl-1-(2,4,6-trichlorophenyl)-1H-pyrazole-4-carboxylic acid ethyl ester]",IC50,human recombinant PDE4; [2],131 µM
"CCOC(=O)c1c(C)nn(-c2ncccc2[N+](=O)[O-])c1C [Example 10, 3,5-dimethyl-1-(3-nitropyridin-2-yl)-1H-pyrazole-4-carboxylic acid ethyl ester]",IC50,human recombinant PDE4; [2],0.2 µM
same,IC50,human recombinant PDE4; [3],0.2 µM
same,EC50,[1]; [4],2 µM
"COC(=O)c1cnn(-c2cc(C(F)(F)F)cc(C)n2)c1C(=O)C=CN(C)C [Example 29, 5-(3-Dimethylaminoacryloyl)-1-(6-methyl-4-trifluoromethylpyridin-2-yl)-1H-pyrazole-4-carboxylic acid methyl ester]",IC50,human recombinant PDE4; [2],37 µM
"COC(=O)c1cnn(-c2cc(C(F)(F)F)cc(C)n2)c1C(C)=O [Example 33, 5-Acetyl-1-(6-methyl-4-trifluoromethylpyridin-2-yl)-1H-pyrazole-4-carboxylic acid methyl ester]",IC50,human recombinant PDE4; [2],88.2 µM
"C/C(=N\O)c1cnn(-c2cc(C(F)(F)F)cc(C)n2)c1C [Example 32, 1-[5-Methyl-1-(6-methyl-4-trifluoromethyl-pyridin-2-yl)-1H-pyrazol-4-yl]-ethanone oxime]",IC50,human recombinant PDE4; [2],67.4 µM
"Cc1ccc(OC(=O)c2c(C)nn(-c3ccccc3)c2C)cc1 [Example 15, 3,5-dimethyl-1-phenyl-1H-pyrazole-4-carboxylic acid p-tolyl ester]",IC50,human recombinant PDE4; [2],36.5 µM
"Cc1nn(-c2ccccc2)c(C)c1C=O [Example 28, 3,5-Dimethyl-1-phenyl-1H-pyrazole-4-carboxaldehyde]",IC50,human recombinant PDE4; [2],18 µM
"CCOC(=O)c1c(C)nn(-c2ncccc2N)c1C [Example 12, 1-(3-aminopyridin-2-yl)-3,5-dimethyl-1H-pyrazole-4-carboxylic acid ethyl ester]",IC50,human recombinant PDE4; [2],0.94 µM
same,IC50,human recombinant PDE4; [3],0.94 µM
same,EC50,[1]; [5],2.6 µM
"Cc1nn(-c2ccccc2)c(C)c1C(=O)Nc1ccncc1 [Example 34, 3,5-Dimethyl-1-phenyl-1H-pyrazole-4-carboxylic acid pyridin-4-ylamide]",IC50,human recombinant PDE4; [2],97.9 µM
"CCOC(=O)c1c(C)nn(-c2ccc(C)cc2)c1C [Example 4, 3,5-dimethyl-1-p-tolyl-1H-pyrazole-4-carboxylic acid ethyl ester]",IC50,human recombinant PDE4; [2],3.94 µM
"Cc1nn(-c2ccc(N)cc2)c(C)c1C(=O)O [Example 18, 1-(4-aminophenyl)-3,5-dimethyl-1H-pyrazole-4-carboxylic acid]",IC50,human recombinant PDE4; [2],175 µM
"CCOC(=O)c1c(C)nn(-c2ccc([N+](=O)[O-])cn2)c1C [Example 17, 3,5-dimethyl-1-(5-nitropyridin-2-yl)-1H-pyrazole-4-carboxylic acid ethyl ester]",IC50,human recombinant PDE4; [2],57.5 µM
"CCOC(=O)c1c(C)nn(-c2ccc([N+](=O)[O-])cn2)c1C [Example 7, 3,5-dimethyl-1-(5-nitropyridin-2-yl)-1H-pyrazole-4-carboxylic acid ethyl ester]",IC50,"human recombinant PDE4; read-out: PDE4 IC50, structure table",12.9 µM
CCOC(=O)c1c(C)nn(-c2ccc(N=Cc3ccccc3O)cc2)c1C [Example 38],IC50,human recombinant PDE4; [6],0.4 µM
same,IC50,human recombinant PDE4; [7],0.4 µM
same,EC50,[1]; [5],1 µM
"CCOC(=O)c1c(C)nn(-c2ccc(NC(=O)C(C)(C)C)cc2)c1C [Example 14, 1-[4-(2,2-dimethylpropionylamino)phenyl]-3,5-dimethyl-1H-pyrazole-4-carboxylic acid ethyl ester]",IC50,human recombinant PDE4; [2],6.39 µM
"COC(=O)c1cnn(-c2ccccn2)c1C(C)=O [Example 37, 5-Acetyl-1-pyridin-2-yl-1H-pyrazole-4-carboxylic acid methyl ester]",IC50,human recombinant PDE4; [2],181 µM
"Cc1nn(-c2ncccc2[N+](=O)[O-])c(C)c1C(=O)O [Example 16, 3,5-dimethyl-1-(3-nitropyridin-2-yl)-1H-pyrazole-4-carboxylic acid]",IC50,human recombinant PDE4; [2],47.4 µM
"CCOC(=O)c1c(C)nn(-c2ccc(NS(=O)(=O)c3ccc(OC)cc3)cc2)c1C [Example 13, 1-[4-(4-methoxybenzenesulfonylamino)phenyl]-3,5-dimethyl-1H-pyrazole-4-carboxylic acid ethyl ester]",IC50,human recombinant PDE4; [6],1.88 µM
"CCOC(=O)c1cnn(-c2ccc(N)cc2)c1C(F)(F)F [Example 27, 1-(4-aminophenyl)-5-trifluoromethyl-1H-pyrazole-4-carboxylic acid ethyl ester]",IC50,human recombinant PDE4; [2],3.61 µM
COC(=O)N1CC(c2ccc(OC)c(OC3CCCC3)c2)C(C)(C(C)=O)C1 (centres unmarked),IC50,recombinant human PDE4,~2 nM
"CCOC(=O)c1c(C)nn(-c2ccccc2N)c1C [Example 6, 3,5-dimethyl-1-(2-aminophenyl)-1H-Pyrazole-4-carboxylic acid ethyl ester]",IC50,human recombinant PDE4; [2],1.13 µM
"Cc1nn(-c2ccccc2)c(C)c1C(=O)Nc1ccccc1 [Example 36, 3,5-Dimethyl-1-phenyl-1H-pyrazole-4-carboxylic acid phenylamide]",IC50,human recombinant PDE4; [2],142 µM
CCOC(=O)c1c(C)nn(-c2ccc(N=Cc3ccc(OC)cc3)cc2)c1C [Example 39],IC50,human recombinant PDE4; [6],0.69 µM
same,IC50,human recombinant PDE4; [7],0.69 µM
same,EC50,[1]; [4],1.3 µM
"CCOC(=O)c1c(C)nn(C2CCCCC2)c1C [Example 19, 1-cyclohexyl-3,5-dimethyl-1H-pyrazole-4-carboxylic acid ethyl ester]",IC50,human recombinant PDE4; [2],0.053 µM
same,IC50,human recombinant PDE4; [3],0.053 µM
same,EC50,[1]; [4],0.52 µM
"CCOC(=O)c1c(C)nn(-c2ccccc2[N+](=O)[O-])c1C [Example 5, 3,5-dimethyl-1-(2-nitrophenyl)-1H-pyrazole-4-carboxylic acid ethyl ester]",IC50,human recombinant PDE4; [2],0.65 µM
"CCOC(=O)c1c(C)nn(-c2cccc(N)c2)c1C [Example 9, 1-(3-aminophenyl)-3,5-dimethyl-1H-pyrazole-4-carboxylic acid ethyl ester]",IC50,human recombinant PDE4; [2],1.03 µM
same,IC50,human recombinant PDE4; [3],1 µM
same,EC50,[1]; [5],1.9 µM
"CCOC(=O)c1cnn(-c2ncc(C(F)(F)F)cc2Cl)c1C [Example 31, 1-(3-Chloro-5-trifluoromethylpyridin-2-yl)-5-methyl-1H-pyrazole-4-carboxylic acid ethyl ester]",IC50,human recombinant PDE4; [2],63 µM
CCOC(=O)c1c(C)nn(-c2ccc(NCc3ccccc3O)cc2)c1C [Example 40],IC50,human recombinant PDE4; [6],0.92 µM
same,IC50,human recombinant PDE4; [7],0.92 µM
same,EC50,[1]; [5],6.2 µM
"CCOC(=O)c1c(C)nn(-c2ccccc2)c1C [Example 3, 3,5-dimethyl-1-phenyl-1H-pyrazole-4-carboxylic acid ethyl ester]",IC50,human recombinant PDE4; [2],0.31 µM
same,IC50,human recombinant PDE4; [3],0.31 µM
same,EC50,[1]; [5],1.8 µM

# From patent US7087634B2, “Cyclic AMP-specific phosphodiesterase inhibitors” (ICOS Corporation, priority 1999, dated 2006)
